According to patent US4221794A, “Method of imparting immunomodulating and antiviral activity” (Newport Pharmaceuticals International, Inc., priority 1979, dated 1980):
Read-outs that look alike come from different tables or passages of the source.

Experiments:
Herpes virus = assay: Anti-herpes activity, plaque assay (Table 3); assay type: cell-based, herpes hominis type 2 (Vero cells); conditions: for Plaques (PFU) Percent Inhibition: Test 15-150 μg/ml; for reduce plaque formation caused by Herpes Simplex virus: concentrations less than 100 μg/ml
Excerpt: Anti-Herpes Activity--(Plaque Assay)
The infection of tissue culture cells by Herpes virus causes cell lysis. After a period of time these lysed cells are visualized as a tiny clear area (plaque) on a layer of cells. The incorporation of a test substance into the media will reduce the number of plaques if it is capable of preventing virus replication. The method is as follows:
There was employed herpes hominis type 2 purchased from American Type Culture Collection (ATCC), Bethesda, Maryland, ATCC #VR 540, Lot 3D. The lyophilized viral suspension was reconstituted with 1 ml sterile distilled H2 O. The virus was passed twice through HeLa-cell monolayers. The tissue-culture supernates were pooled, dispensed in 1-ml aliquots, and stored at -70° C.
Vero cells in log-growth phase were subcultured at a concentration of 1×10^5 cells/ml in 50-ml Falcon flasks in Eagle's Minimum Essential Medium (MEM), supplemented with 10% fetal calf serum (FCS) and antibiotics. Media were changed the day following planting. The Vero monolayers reached confluence by the second day after planting and with the cells in log phase, the cultures were used for the plaque assay.
Culture media were poured off and the monolayers were wahsed once with phosphate-buffered saline (PBS). Several different dilutions of the working-stock virus suspension were prepared and each culture flask was infected with 0.5 ml of one of the virus dilutions added to FCS-free medium. […] Controls were prepared with medium devoid of drug.
Virus adsorption was allowed to proceed for 2 hours at 37° C., during which time the cultures were rocked gently every 15 minutes. Then Media were poured off and the monolayers were washed once with 10 ml PBS.
Agarose was prepared at a concentration of 6% w/v in 50 ml PBS. A stock medium of MEM supplemented with 2% FCS was prepared. Drug was added to some of the stock medium at 150 μg/ml. The three solutions were maintained at 47° C. In addition, a 1:10 dilution of pooled human anti-herpes sera was readied. Just before the start of treatment, 15 ml of the agarose solution were added to 85 ml of medium. Another 15 ml of agarose were added to 85 ml of drug-medium.
Each of the washed monolayers in one group of experiments was treated either with 5 ml of agarose-medium or with 5 ml of agarose-drug-medium. In another group of experiments, each monolayer was treated either with 0.2 ml of anti-herpes sera in 5 ml of stock medium, or with 0.2 ml of anti-herpes sera in 5 ml of drug-medium. The anti-herpes sera were used in place of agarose to localize plaques by neutralizing any free virus in the medium. The flasks were allowed to remain at room temperature for 5 minutes, after which they were incubated at 37° C. for 2 days. Triplicate cultures were used for most treatment groups.
Ten ml of PBS then were added to each flask. Overlays were shaken gently and then were poured out of the flasks. The monolayers were stained with a solution 0.5% w/v crystal violet in 50% methanol in triple-distilled H2 O.
Plaques were counted either directly by transmitted fluorescent light and macroviewing, or by the use of light microscopy for microplaques. Microplaques were counted by averaging three fields per experimental group under 150×magnification.

[1] = Phase solubility study with DIP.PAcBA; assay type: physicochemical; conditions: constant pH
Excerpt: This is indicative of an interaction occuring in solution to yield a complex.

[2] = tested on: human peripheral blood lymphocytes; assay: Mitogen (PHA) induced human lymphocyte proliferation; assay type: cell-based; conditions: plus = immunostimulating, minus = immunoinhibiting, 0 = neither
A/Dunedin/73 (H3 N2) = assay: Inhibition of influenza virus replication, A/Dunedin/73; assay type: cell-based, influenza virus A/Dunedin/73
A/Texas/77 (H3 N2) = assay: Inhibition of influenza virus replication, A/Texas/77; assay type: cell-based, influenza virus A/Texas/77
[3] = tested on: Influenza A Swine 1976 (Hlsw -N1); assay type: cell-based; conditions: A/Swine/76 (Hlsw N1)
A/PR8 (H0 N1) = assay: Inhibition of influenza virus replication, A/PR8; assay type: cell-based
A2 Hong Kong (H2 N2) = assay: Inhibition of influenza virus replication, A2 Hong Kong; assay type: cell-based
A/Jap/305 (H2 N2) = assay: Inhibition of influenza virus replication, A/Jap/305; assay type: cell-based, influenza virus A/Jap/305

## CCCCCC[C@H]([C@H](C)O)n1cnc2c(=O)[nH]cnc21 (relative stereo) [NPT 15392, ERYTHRO-9-(2-HYDROXY-3-NONYL)HYPOXANTHINE]
Herpes virus
  inhibition of replication of Herpes Simplex virus (in words): shown to inhibit the replication of Herpes Simplex virus
  Plaques (PFU) Percent Inhibition: 98%
  reduce plaque formation caused by Herpes Simplex virus: > 90%
[1]
  solubility with DIP.PAcBA (phase solubility): increased solubility at increasing concentrations of DIP.PAcBA
[2]; 1.0-10 (unit not given)
  Maximum Percent Change, Mitogen Induced (PHA) Human Lymph. Prolif.: 20%
[2]; 10-100 (unit not given)
  Maximum Percent Change, Mitogen Induced (PHA) Human Lymph. Prolif.: -50%
[2]; .01-1.0 (unit not given)
  Maximum Percent Change, Mitogen Induced (PHA) Human Lymph. Prolif.: 11-15%

## CCCCCC[C@H]([C@H](C)O)n1cnc2c(=O)[nH]cnc21 (relative stereo) [NPT 15410]
A/Dunedin/73 (H3 N2); A/Dunedin/73, 10.0-100 μg/ml
  Inhibition of influenza virus replication: ± (10-20% Inhibition)
A/Dunedin/73 (H3 N2); A/Dunedin/73, >100 μg/ml
  Inhibition of influenza virus replication: ++ (30-50% Inhibition)
A/Texas/77 (H3 N2); A/Texas/77, 1.0-10.0 μg/ml
  Inhibition of influenza virus replication: + (20-30% Inhibition)
A/Texas/77 (H3 N2); A/Texas/77, 10.0-100 μg/ml
  Inhibition of influenza virus replication: ++++ (>70% Inhibition)
A/Texas/77 (H3 N2); A/Texas/77, .01-1.0 μg/ml
  Inhibition of influenza virus replication: ++ (30-50% Inhibition)
A/Texas/77 (H3 N2); A/Texas/77, >100 μg/ml
  Inhibition of influenza virus replication: ++++ (>70% Inhibition)
[3]; 1.0-10.0 μg/ml
  Inhibition of influenza virus replication: ++ (30-50% Inhibition)
[3]; 10.0-100 μg/ml
  Inhibition of influenza virus replication: ++++ (>70% Inhibition)
[3]; .01-1.0 μg/ml
  Inhibition of influenza virus replication: +++ (50-70% Inhibition)
[3]; >100 μg/ml
  Inhibition of influenza virus replication: ++++ (>70% Inhibition)
Herpes virus
  inhibition of replication of Herpes Simplex virus (in words): shown to inhibit the replication of Herpes Simplex virus
  Plaques (PFU) Percent Inhibition: 98%
  reduce plaque formation caused by Herpes Simplex virus: > 90%
A/PR8 (H0 N1); A/PR8, 1.0-10.0 μg/ml
  Inhibition of influenza virus replication: ++ (30-50% Inhibition)
A/PR8 (H0 N1); A/PR8, 10.0-100 μg/ml
  Inhibition of influenza virus replication: ++++ (>70% Inhibition)
A/PR8 (H0 N1); A/PR8, .01-1.0 μg/ml
  Inhibition of influenza virus replication: ++ (30-50% Inhibition)
A/PR8 (H0 N1); A/PR8, >100 μg/ml
  Inhibition of influenza virus replication: +++ (50-70% Inhibition)
A2 Hong Kong (H2 N2); 10.0-100 μg/ml
  Inhibition of influenza virus replication: ++ (30-50% Inhibition)
A2 Hong Kong (H2 N2); >100 μg/ml
  Inhibition of influenza virus replication: +++ (50-70% Inhibition)
A/Jap/305 (H2 N2); A/Jap/305, 10.0-100 μg/ml
  Inhibition of influenza virus replication: ++++ (>70% Inhibition)
A/Jap/305 (H2 N2); A/Jap/305, >100 μg/ml
  Inhibition of influenza virus replication: ++++ (>70% Inhibition)
[2]; 1.0-10 (unit not given)
  Maximum Percent Change, Mitogen Induced (PHA) Human Lymph. Prolif.: 60%
